Assay results: ChEMBL document CHEMBL1201862, “PubChem BioAssay data set” (2004)
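Dose response: 5 concentrations. Exposure: 48 h. Format: 96-well plates. Endpoint: linear interpolation; highest concentration if not reached. GI50 = concentration required for 50% inhibition of growth.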 Active and inactive are the calls of the source. Rule as the data show it: active = GI50 up to about 1.1 µM and inactive = higher.

Tests used:
Assay in all cases: NCI anticancer screen, dose series, 48 h
SK-OV-3 = test system: SK-OV-3
NCI-H522 = test system: NCI-H522
K562 = test system: K562
DLD-1 = test system: DLD-1
SK-MEL-2 = test system: SK-MEL-2
KM-20L2 = test system: KM-20L2
MCF7 = test system: MCF7
SK-MEL-5 = test system: SK-MEL-5
SNB-75 = test system: SNB-75
U-251 = test system: U-251
HOP-92 = test system: HOP-92
KM12 = test system: KM12
MOLT-4 = test system: MOLT-4
SNB-78 = test system: SNB-78
M19-MEL = test system: M19-MEL
NCI-H226 = test system: NCI-H226
NCI-H23 = test system: NCI-H23
UACC-62 = test system: UACC-62
SN12C = test system: SN12C
OVCAR-5 = test system: OVCAR-5
Malme-3M = test system: Malme-3M
SW-620 = test system: SW-620
OVCAR-4 = test system: OVCAR-4
CCRF-CEM = test system: CCRF-CEM
SNB-19 = test system: SNB-19
SF-539 = test system: SF-539
HOP-18 = test system: HOP-18
HCC 2998 = test system: HCC 2998
A549 = test system: A549
UACC-257 = test system: UACC-257
IGROV-1 = test system: IGROV-1
A498 = test system: A498
SK-MEL-28 = test system: SK-MEL-28
UO-31 = test system: UO-31
EKVX = test system: EKVX
NCI-H460 = test system: NCI-H460
NCI/ADR-RES = test system: NCI/ADR-RES
RPMI-8226 = test system: RPMI-8226
OVCAR-3 = test system: OVCAR-3
HOP-62 = test system: HOP-62
DMS-273 = test system: DMS-273
HCT-15 = test system: HCT-15
HL-60 = test system: HL-60
SF-268 = test system: SF-268
XF498 = test system: XF498
LOX IMVI = test system: LOX IMVI
DMS-114 = test system: DMS-114
SF-295 = test system: SF-295
OVCAR-8 = test system: OVCAR-8
COLO 205 = test system: COLO 205
HT-29 = test system: HT-29
RXF 393 = test system: RXF 393
HCT-116 = test system: HCT-116
CAKI-1 = test system: CAKI-1
ACHN = test system: ACHN
SR = test system: SR
TK-10 = test system: TK-10
M14 = test system: M14
786-0 = test system: 786-0
LXFL 529 = test system: LXFL 529

Oc1c(CNCCCN2CCCC2)cc(Cl)c2cccnc12
GI50 (SK-OV-3): 4.13 µM (inactive)
GI50 (NCI-H522): 4.22 µM (inactive)
GI50 (K562): 2.37 µM (inactive)
GI50 (DLD-1): 3.22 µM (inactive)
GI50 (SK-MEL-2): 11.1 µM (inactive)
GI50 (KM-20L2): 3.78 µM (inactive)
GI50 (MCF7): 4.56 µM (inactive)
GI50 (SK-MEL-5): 1.36 µM (inactive)
GI50 (SNB-75): 13 µM (inactive)
GI50 (U-251): 4.09 µM (inactive)
GI50 (HOP-92): 7 µM (inactive)
GI50 (KM12): 4.05 µM (inactive)
GI50 (MOLT-4): 2.77 µM (inactive)
GI50 (SNB-78): 14.2 µM (inactive)
GI50 (M19-MEL): 2.52 µM (inactive)
GI50 (NCI-H226): 3.15 µM (inactive)
GI50 (NCI-H23): 11 µM (inactive)
GI50 (UACC-62): 2.21 µM (inactive)
GI50 (SN12C): 5.64 µM (inactive)
GI50 (OVCAR-5): 2.52 µM (inactive)
GI50 (Malme-3M): 5.55 µM (inactive)
GI50 (SW-620): 4.01 µM (inactive)
GI50 (OVCAR-4): 3.92 µM (inactive)
GI50 (CCRF-CEM): 2.34 µM (inactive)
GI50 (SNB-19): 6.46 µM (inactive)
GI50 (SF-539): 2.87 µM (inactive)
GI50 (HOP-18): 4.95 µM (inactive)
GI50 (HCC 2998): 3.1 µM (inactive)
GI50 (A549): 3.14 µM (inactive)
GI50 (UACC-257): 11.4 µM (inactive)
GI50 (IGROV-1): 6.85 µM (inactive)
GI50 (A498): 15 µM (inactive)
GI50 (SK-MEL-28): 11.2 µM (inactive)
GI50 (UO-31): 3.76 µM (inactive)
GI50 (EKVX): 1.75 µM (inactive)
GI50 (NCI-H460): 2.88 µM (inactive)
GI50 (NCI/ADR-RES): 1.48 µM (inactive)
GI50 (RPMI-8226): 2.38 µM (inactive)
GI50 (OVCAR-3): 2.14 µM (inactive)
GI50 (HOP-62): 2.66 µM (inactive)
GI50 (DMS-273): 2.83 µM (inactive)
GI50 (HCT-15): 2.09 µM
GI50 (HL-60): 0.364 µM (active)
GI50 (SF-268): 3.27 µM (inactive)
GI50 (XF498): 2.56 µM (inactive)
GI50 (LOX IMVI): 3.01 µM (inactive)
GI50 (DMS-114): 3.05 µM (inactive)
GI50 (SF-295): 2.19 µM (inactive)
GI50 (OVCAR-8): 3.24 µM (inactive)
GI50 (COLO 205): 3.79 µM (inactive)
GI50 (HT-29): 5.3 µM (inactive)
GI50 (RXF 393): 11.5 µM (inactive)
GI50 (HCT-116): 2.61 µM (inactive)
GI50 (CAKI-1): 3.03 µM (inactive)

CC(=O)O[C@H]1C(N(C)C(=O)c2ccccc2)CC[C@]2(C)C3CC[C@@]4(C)C(CC(O)[C@@H]4C(C)N(C)C)[C@@H]3CCC12 (stereo not given in full)
GI50 (SK-OV-3): > 100 µM (inactive)
GI50 (NCI-H522): > 100 µM (inactive)
GI50 (K562): > 100 µM (inactive)
GI50 (DLD-1): > 100 µM (inactive)
GI50 (SK-MEL-2): > 100 µM (inactive)
GI50 (KM-20L2): > 100 µM (inactive)
GI50 (SK-MEL-5): > 100 µM (inactive)
GI50 (SNB-75): > 100 µM (inactive)
GI50 (ACHN): > 100 µM (inactive)
GI50 (U-251): > 100 µM (inactive)
GI50 (HOP-92): > 100 µM (inactive)
GI50 (KM12): > 100 µM (inactive)
GI50 (MOLT-4): > 100 µM (inactive)
GI50 (SNB-78): > 100 µM (inactive)
GI50 (M19-MEL): > 100 µM (inactive)
GI50 (NCI-H226): > 100 µM (inactive)
GI50 (NCI-H23): > 100 µM (inactive)
GI50 (UACC-62): > 100 µM (inactive)
GI50 (SN12C): > 100 µM (inactive)
GI50 (OVCAR-5): > 100 µM (inactive)
GI50 (Malme-3M): > 100 µM (inactive)
GI50 (SW-620): > 100 µM (inactive)
GI50 (SR): 76.9 µM (inactive)
GI50 (OVCAR-4): > 100 µM (inactive)
GI50 (CCRF-CEM): > 100 µM (inactive)
GI50 (SNB-19): > 100 µM (inactive)
GI50 (SF-539): > 100 µM (inactive)
GI50 (TK-10): > 100 µM (inactive)
GI50 (HOP-18): > 100 µM (inactive)
GI50 (HCC 2998): > 100 µM (inactive)
GI50 (M14): > 100 µM (inactive)
GI50 (A549): > 100 µM (inactive)
GI50 (UACC-257): > 100 µM (inactive)
GI50 (IGROV-1): > 100 µM (inactive)
GI50 (A498): > 100 µM (inactive)
GI50 (SK-MEL-28): > 100 µM (inactive)
GI50 (EKVX): > 100 µM (inactive)
GI50 (NCI-H460): > 100 µM (inactive)
GI50 (RPMI-8226): > 100 µM (inactive)
GI50 (786-0): > 100 µM (inactive)
GI50 (OVCAR-3): > 100 µM (inactive)
GI50 (HOP-62): > 100 µM (inactive)
GI50 (DMS-273): > 100 µM (inactive)
GI50 (HCT-15): > 100 µM
GI50 (HL-60): 89.5 µM (inactive)
GI50 (SF-268): > 100 µM (inactive)
GI50 (XF498): > 100 µM (inactive)
GI50 (LOX IMVI): > 100 µM (inactive)
GI50 (DMS-114): > 100 µM (inactive)
GI50 (SF-295): > 100 µM (inactive)
GI50 (OVCAR-8): > 100 µM (inactive)
GI50 (COLO 205): > 100 µM (inactive)
GI50 (HT-29): > 100 µM (inactive)
GI50 (HCT-116): > 100 µM (inactive)
GI50 (LXFL 529): > 100 µM (inactive)
GI50 (CAKI-1): > 100 µM (inactive)
